Reference: publication PMC6217552, “Refining the structure−activity relationships of 2-phenylcyclopropane carboxylic acids as inhibitors of O-acetylserine sulfhydrylase isoforms” (Journal of Enzyme Inhibition and Medicinal Chemistry, 2018)
Values after ≈ are worked out from the molar mass of the structure shown. “Also recorded” adds a separate entry of the source.

Key:
[1] = target: T1, StOASS-A (Salmonella typhimurium, UniProt P0A1E3); assay: Steady-state enzyme activity assay, discontinuous ninhydrin cysteine determination; assay type: biochemical, Salmonella enterica serovar Typhimurium; conditions: value in brackets in IC50 column
T1 construct: made in house; host or cells: E. coli
T1 sequence (P0A1E3 whole entry): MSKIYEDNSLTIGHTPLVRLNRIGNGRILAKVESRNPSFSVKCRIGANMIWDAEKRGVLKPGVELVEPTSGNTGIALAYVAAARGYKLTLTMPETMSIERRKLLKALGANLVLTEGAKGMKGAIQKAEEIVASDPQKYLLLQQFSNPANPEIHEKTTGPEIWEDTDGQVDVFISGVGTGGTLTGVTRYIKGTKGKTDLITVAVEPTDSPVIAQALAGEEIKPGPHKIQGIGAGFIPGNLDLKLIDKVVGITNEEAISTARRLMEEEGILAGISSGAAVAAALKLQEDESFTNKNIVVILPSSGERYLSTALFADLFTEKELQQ
Procedure: (§1) StOASS-A and StOASS-B, expressed in E. coli, were purified by metal affinity chromatography as described previously. Proteins were more that 95% pure based on SDS-PAGE analysis (data not shown).
(§2) Enzyme activity under steady-state conditions was measured by a discontinuous method as described previously. Briefly, the reaction was carried out in 100 mM HEPES pH 7.0 in the presence of 6 nM OASS, 60 nM BSA to prevent enzyme adhesion to tube wall, 1 mM OAS (equal to the K m value of this subsrate), 0.6 mM Na2S (a saturating concentration), 1% DMSO and variable concentrations of inhibitor. Reaction was stopped at time intervals by the addition of acetic acid and concentration of cysteine was determined by a modification of the ninhydrin assay. The fractional velocity as a function of inhibitor concentration was determined and IC50 was calculated by the following equation: vi/v0=1/1+(I/IC50) where, v 0 is the reaction velocity in the absence of inhibitor and v i is reaction velocity in the presence of inhibitor at concentration [I].
(§3) For a competitive inhibitor against OAS the IC50 measured under these conditions is about 2⋅K d.

[2] = target: T2, StOASS-B (Salmonella typhimurium, UniProt P29848); assay: as above; assay type: biochemical; conditions: value in brackets in IC50 column
T2 construct: made in house; host or cells: E. coli
T2 sequence (P29848 1-303): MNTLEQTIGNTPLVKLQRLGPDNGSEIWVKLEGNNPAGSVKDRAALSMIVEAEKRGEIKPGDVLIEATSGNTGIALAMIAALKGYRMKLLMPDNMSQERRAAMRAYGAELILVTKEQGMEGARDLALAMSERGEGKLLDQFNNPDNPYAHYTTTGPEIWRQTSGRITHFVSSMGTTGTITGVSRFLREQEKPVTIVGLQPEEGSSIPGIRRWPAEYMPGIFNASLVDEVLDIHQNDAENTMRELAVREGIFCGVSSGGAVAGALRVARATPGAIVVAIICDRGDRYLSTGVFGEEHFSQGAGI
Procedure: as §1, §2, §3

[3] = Solubility limit in the buffer used for activity assays; assay type: physicochemical; conditions: aqueous buffer
Text: It is possible to conclude that expansion of the series towards the para position of the phenyl ring, unless carried out with small groups, is detrimental for the activity of the compounds. […] Even though the carboxylic acid group is essential for the binding to OASS[13] ^, [27] ^, [28], its scarce diffusion across biological membranes is a well-known issue[32] ^, [33]. Therefore, to preserve the key interactions with the target, we carried out the replacement of the carboxylic acid by several isosters (Scheme 2). […] This prompted us to further investigate the mechanism of inhibition of these molecules, since the residual activity at saturating concentrations is significant (about 40 − 50%, Figure 3, panel A). […] This hampers the accurate determination of the inhibition mechanism due to limitations to the range of inhibitor concentration that can be explored. However, since partial inhibition is a typical feature of allosteric inhibitors, we used a method developed by our group[24] to assess if compound 25 is able to displace a low affinity active site binder, 1-ethylcyclopropane-1,2-dicarboxylic acid, that forms a highly fluorescent complex with OASS. […] This is a strong indication that compound 25 is not able to compete for binding to the active site with 1-ethylcyclopropane-1,2-dicarboxylic acid. […]

[4] = target: T3, OASS-B (Salmonella typhimurium, UniProt P29848); assay: Fluorescence competitive binding assay (displacement of 1-ethylcyclopropane-1,2-dicarboxylic acid); conditions: 200 µM 1-ECP-1,2-DCA, 190-200 µM compound, 100 mM Hepes, 1% DMSO, pH 7, 20 °C
T3 construct: made in house; host or cells: E. coli
T3 sequence (P29848 1-303): T2 sequence (P29848 1-303)
Procedure: Ligand affinity was measured by direct fluorimetric titrations, monitoring the fluorescence emission spectrum of cofactor PLP upon excitation at 412 nm. 0.1–1 µM OASS was titrated by increasing concentrations of ligand in 100 mM HEPES pH 7.0, 1% DMSO, at 20 °C. The dependence of fluorescence emission intensity on the concentration of compound was fitted to a binding isotherm: I=I0+ΔI·[ligand]/Kd+[ligand] where, I is the fluorescence emission intensity at a given ligand concentration, I 0 is the fluorescence emission intensity in the absence of ligand, ΔI is the amplitude and K d is the dissociation constant. When the K d was lower than the concentration of the protein used in the assay, the dependence of the fluoresecnce emission intensity on ligand concentration was fitted to a quadratic equation that describes tight binding. The fluorescence competitive binding assay, described elsewhere, was used to evaluate whether compounds bind at the active site of the enzyme or to an allosteric site. […] Binding of a higher affinity compound to the active site displaces 1-ethylcyclopropane-1,2-dicarboxylic acid and leads to a decrease in the fluorescence emission intensity.
Figure 3. […] Fluorescence emission spectra upon excitation at 412 nm were collected in the absence and presence of 200 µM 1-ethylcyclopropane-1,2-dicarboxylic acid (1-ECP-1,2-DCA). […]

[5] = system: Escherichia coli ATCC25922; assay: Minimal inhibitory concentration (CLSI) in medium with limiting cysteine; assay type: cell-based; conditions: E. coli ATCC25922, medium with limiting cysteine; data not shown
Procedure: Minimal inhibitory concentration assays were performed according to the CLSI guidelines (Clinical and Laboratory Standards Institute; Performance Standards for Antimicrobial Susceptibility Testing; Twenty-Fourth Informational Supplement; CLSI document M100-S24, CLSI; 2014.). The compounds were dissolved in DMSO to obtain a stock solution 100-fold more concentrated than the desired higher concentration and then 10 serial dilutions were performed. One microliter of each dilution was transferred to the microtiter plate.
Escherichia coli ATCC25922 was grown until log phase on liquid Mueller–Hinton broth at 37 °C in a shaker at 225 rpm. Bacterial suspension was then centrifuged at 2500 rpm for 15 min and diluted with phosphate buffer to obtain a solution with a turbidity of about 0.5 McFarland. Bacterial suspension was further diluted (1:100) with fresh LB 20%. Fifty microliters of the bacterial suspension containing 10^6 CFU/mL were inoculated into each well, to obtain a final concentration of 5 × 10^5 CFU/mL. Each plate contained growth control wells and sterility check wells.
We investigated the ability of the new set of compounds to interfere with bacterial growth.

[6] = target: T2, StOASS-B; set-up: method as in PMID 28821763; conditions: low affinity active site binder; read-out: Kd for OASS-B; cited from earlier work

SMILES	OASS-A percent inhibition measured at saturation of inhibitor or at the highest inhibitor concentration allowed by solubility [1] [%]	OASS-B percent inhibition measured at saturation of inhibitor or at the highest inhibitor concentration allowed by solubility [2] [%]	solubility [3] [µM]	Displacement of 1-ethylcyclopropane-1,2-dicarboxylic acid from OASS-B [4]	Interference with bacterial growth (MIC) [5]	Kd [6] [µM]
Cc1ccc(C[C@]2(NS(=O)(=O)c3ccc(C)cc3)C[C@H]2c2ccccc2)cc1 [Compound 25, (1R,2S)-4-methyl-N-(1-(4-methylbenzyl)-2-phenylcyclopropyl)benzenesulfonamide]	39	35	~50 (≈ 19.6 µg/mL)	unable to displace the compound up to an equimolar concentration of about 200 μM; also recorded: does not change the emission spectrum	–	–
Cc1ccc(C[C@]2(NS(C)(=O)=O)C[C@H]2c2ccccc2)cc1 [Compound 24, (1R,2S)-1-N-(1-(4-methylbenzyl)-2-phenylcyclopropyl)methanesulfonamide]	45	50	~250 (≈ 78.9 µg/mL)	–	none of the synthesised compounds was able to interfere significantly with bacterial growth	–
CCC1(C(=O)O)CC1C(=O)O (stereo not drawn) [1-ethylcyclopropane-1,2-dicarboxylic acid]	–	–	–	–	–	170
